# Source: patent publication US20240173432A1, “Compositions and Methods for Treatment of Myotonic Dystrophy Type 1 with CRISPR/SluCas9” (Vertex Pharmaceuticals Incorporated, priority 2021, published 2024)
# How the values were obtained:
# [1] = tested on: 3′ UTR of the human DMPK gene; experiment: Single-cut screening: indel editing efficiency by Sanger sequencing and ICE analysis in primary DM1 patient myoblasts; assay type: cell-based; conditions: vehicle-treated samples; for Indel efficiency: single SluCas9 sgRNA RNP in primary DM1 patient myoblasts, Sanger sequencing and ICE analysis; for indel efficiency (Sanger sequencing and ICE analysis): single-cut, SluCas9 RNP, 72 hrs post nucleofection, wild-type allele
# Outline: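 Indels were estimated by ICE from Sanger chromatograms of PCR amplicons covering the DMPK 3′ UTR wild-type allele, using only vehicle-treated samples; sgRNAs with R2<0.9 are flagged. Samples came from primary DM1 patient myoblasts (2 × 10^5) harvested 72 h after nucleofection with 30 pmol SluCas9 and 90 pmol single sgRNA RNP.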
# [2] = tested on: CAG foci in primary DM1 patient myoblasts; experiment: Single-cut screening: CAG foci staining; assay type: cell-based, human; conditions: single sgRNA; for % of CAG foci positive nuclei (DNA-PKi): DNA-PKi treated
# Outline: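 Primary DM1 patient myoblasts were PFA-fixed and hybridized with […] (1 ng/μL, 15 min at 80° C) in 30% formamide/2×SSC, followed by anti-MBNL1 immunostaining and Hoechst counterstain. CAG RNA foci were quantified by high-content confocal imaging after single-cut SuCas9 sgRNA editing.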
# [3] = tested on: CUG foci in primary DM1 patient myoblasts; experiment: Single-cut screening: FISH staining of CUG RNA foci; assay type: cell-based, human; conditions: single sgRNA, primary DM1 patient myoblasts; for % of CUG foci free nuclei (DNA-PKi): DNA-PKi treated
# Outline: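 CD56-purified primary DM1 patient myoblasts nucleofected with SluCas9:sgRNA RNP (30:90 pmol, single-cut), then DMSO or 3 μM DNA-PK inhibitor for 48 h. At 72 h post-nucleofection, cells fixed and stained for CUG foci with Cy3-PNA(CAG)5 probe (1 ng/μL, 80 °C), co-stained for MBNL1 and Hoechst, imaged by high-content confocal microscopy.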
substance,measurement,setting,value
CCCCGGGCACTCAGTCTTCCAA (guide RNA; chemistry not fully specified) [SluU12],Indel efficiency,[1],20%
same,% of CAG foci positive nuclei (DNA-PKi),[2],1.38%
same,% of CAG foci positive nuclei (Vehicle),[2],1.29%
same,% of CUG foci free nuclei (DNA-PKi),[3],50.23%
same,% of CUG foci free nuclei (Vehicle),[3],16.44%
CCCCGTTGGAAGACTGAGTGCC (guide RNA; chemistry not fully specified) [SluU09],Indel efficiency,[1],65%
same,% of CAG foci positive nuclei (DNA-PKi),[2],1.22%
same,% of CAG foci positive nuclei (Vehicle),[2],1.48%
same,% of CUG foci free nuclei (DNA-PKi),[3],74.97%
same,% of CUG foci free nuclei (Vehicle),[3],26.05%
CCCCTCCTCACTTGCGCTGCTC (guide RNA; chemistry not fully specified) [SluD47],Indel efficiency,[1],18%
same,% of CAG foci positive nuclei (DNA-PKi),[2],1.11%
same,% of CAG foci positive nuclei (Vehicle),[2],1%
same,% of CUG foci free nuclei (DNA-PKi),[3],28.63%
same,% of CUG foci free nuclei (Vehicle),[3],8.95%
CCCGGGCACTCAGTCTTCCAAC (guide RNA; chemistry not fully specified) [SluU11],Indel efficiency,[1],21%
same,% of CAG foci positive nuclei (DNA-PKi),[2],1.27%
same,% of CAG foci positive nuclei (Vehicle),[2],1.44%
same,% of CUG foci free nuclei (DNA-PKi),[3],52.22%
same,% of CUG foci free nuclei (Vehicle),[3],19.12%
"CCCGTTGGAAGACTGAGTGCCC (listed as DNA, chemistry not fully specified) [SluU10]",Indel efficiency,[1],81%
same,indel efficiency (Sanger sequencing and ICE analysis),[1],high editing IN4DEL efficiency
same,% of CAG foci positive nuclei (DNA-PKi),[2],0.66%
same,% of CAG foci positive nuclei (Vehicle),[2],2%
same,% of CUG foci free nuclei (DNA-PKi),[3],72.18%
same,% of CUG foci free nuclei (Vehicle),[3],27.04%
CCCTAGAACTGTCTTCGACTCC (guide RNA; chemistry not fully specified) [SluU03],Indel efficiency,[1],9%
same,% of CAG foci positive nuclei (DNA-PKi),[2],2.04%
same,% of CAG foci positive nuclei (Vehicle),[2],1.05%
same,% of CUG foci free nuclei (DNA-PKi),[3],49.49%
same,% of CUG foci free nuclei (Vehicle),[3],11.12%
CCGAGAGCAGCGCAAGTGAGGA (guide RNA; chemistry not fully specified) [SluD50],Indel efficiency,[1],4%
same,% of CAG foci positive nuclei (DNA-PKi),[2],2.2%
same,% of CAG foci positive nuclei (Vehicle),[2],1.81%
same,% of CUG foci free nuclei (DNA-PKi),[3],30.13%
same,% of CUG foci free nuclei (Vehicle),[3],7.64%
"CCGGGCCCGCCCCCTAGCggcc (guide RNA; as printed in the source, key not given here) [SluU37]",Indel efficiency,[1],15%
same,% of CAG foci positive nuclei (DNA-PKi),[2],2.28%
same,% of CAG foci positive nuclei (Vehicle),[2],0.72%
same,% of CUG foci free nuclei (DNA-PKi),[3],30.58%
same,% of CUG foci free nuclei (Vehicle),[3],8.09%
CCTCCGACTCGCTGACAGGCTA (guide RNA; chemistry not fully specified) [SluD67],Indel efficiency,[1],39%
same,% of CAG foci positive nuclei (DNA-PKi),[2],1.8%
same,% of CAG foci positive nuclei (Vehicle),[2],0.69%
same,% of CUG foci free nuclei (DNA-PKi),[3],25.54%
same,% of CUG foci free nuclei (Vehicle),[3],10.06%
CCTGACGTGGATGGGCAAACTG (guide RNA; chemistry not fully specified) [SluD09],Indel efficiency,[1],5%
same,% of CAG foci positive nuclei (DNA-PKi),[2],1.48%
same,% of CAG foci positive nuclei (Vehicle),[2],1.16%
same,% of CUG foci free nuclei (DNA-PKi),[3],33.83%
same,% of CUG foci free nuclei (Vehicle),[3],12.5%
CCTGCAGTTTGCCCATCCACGT (guide RNA; chemistry not fully specified) [SluD11],Indel efficiency,[1],16%
same,% of CAG foci positive nuclei (DNA-PKi),[2],2.22%
same,% of CAG foci positive nuclei (Vehicle),[2],1.7%
same,% of CUG foci free nuclei (DNA-PKi),[3],52.55%
same,% of CUG foci free nuclei (Vehicle),[3],14.54%
"CCTGTAGCCTGTCAGCGAGTCG (listed as DNA, chemistry not fully specified) [SluD68]",Indel efficiency,[1],72%
same,indel efficiency (Sanger sequencing and ICE analysis),[1],high editing IN4DEL efficiency
same,% of CAG foci positive nuclei (DNA-PKi),[2],1.94%
same,% of CAG foci positive nuclei (Vehicle),[2],2.3%
same,% of CUG foci free nuclei (DNA-PKi),[3],25.13%
same,% of CUG foci free nuclei (Vehicle),[3],12.88%
CGAGAGCAGCGCAAGTGAGGAG (guide RNA; chemistry not fully specified) [SluD49],Indel efficiency,[1],41%
same,% of CAG foci positive nuclei (DNA-PKi),[2],2.3%
same,% of CAG foci positive nuclei (Vehicle),[2],2.83%
same,% of CUG foci free nuclei (DNA-PKi),[3],37.77%
same,% of CUG foci free nuclei (Vehicle),[3],12.39%
CGAGGGTCGGGGGTGGGGGTCC (guide RNA; chemistry not fully specified) [SluD88],Indel efficiency,[1],7%
same,% of CAG foci positive nuclei (DNA-PKi),[2],2.42%
same,% of CAG foci positive nuclei (Vehicle),[2],1.4%
same,% of CUG foci free nuclei (DNA-PKi),[3],31.95%
same,% of CUG foci free nuclei (Vehicle),[3],11.11%
CGCCCAGCTCCAGTCCTGTGAT (guide RNA; chemistry not fully specified) [SluU27],Indel efficiency,[1],1%
same,% of CAG foci positive nuclei (DNA-PKi),[2],1.94%
same,% of CAG foci positive nuclei (Vehicle),[2],1.64%
same,% of CUG foci free nuclei (DNA-PKi),[3],38.24%
same,% of CUG foci free nuclei (Vehicle),[3],7.71%
"CGCCCCCTAGCggccggggagg (guide RNA; as printed in the source, key not given here) [SluU41]",Indel efficiency,[1],13%
same,% of CAG foci positive nuclei (DNA-PKi),[2],1.08%
same,% of CAG foci positive nuclei (Vehicle),[2],0.74%
same,% of CUG foci free nuclei (DNA-PKi),[3],47.52%
same,% of CUG foci free nuclei (Vehicle),[3],13.34%
CGCCGAAGCGGGCGGAGCCGGC (guide RNA; chemistry not fully specified) [SluD58],Indel efficiency,[1],33%
same,% of CAG foci positive nuclei (DNA-PKi),[2],1.96%
same,% of CAG foci positive nuclei (Vehicle),[2],1.37%
same,% of CUG foci free nuclei (DNA-PKi),[3],31.45%
same,% of CUG foci free nuclei (Vehicle),[3],18.03%
"CGCGCCAGACGCTCCCCAGAGC (listed as DNA, chemistry not fully specified) [SluD34]",Indel efficiency,[1],71%
same,indel efficiency (Sanger sequencing and ICE analysis),[1],high editing IN4DEL efficiency
same,% of CAG foci positive nuclei (DNA-PKi),[2],2.01%
same,% of CAG foci positive nuclei (Vehicle),[2],3.9%
same,% of CUG foci free nuclei (DNA-PKi),[3],31.92%
same,% of CUG foci free nuclei (Vehicle),[3],15%
CGGAGCGGTTGTGAACTGGCAG (guide RNA; chemistry not fully specified) [SluU20],Indel efficiency,[1],30%
same,% of CAG foci positive nuclei (DNA-PKi),[2],1.43%
same,% of CAG foci positive nuclei (Vehicle),[2],1.15%
same,% of CUG foci free nuclei (DNA-PKi),[3],49.95%
same,% of CUG foci free nuclei (Vehicle),[3],18.45%
CGGATCACAGGACTGGAGCTGG (guide RNA; chemistry not fully specified) [SluU29],Indel efficiency,[1],67%
same,% of CAG foci positive nuclei (DNA-PKi),[2],1.82%
same,% of CAG foci positive nuclei (Vehicle),[2],1.18%
same,% of CUG foci free nuclei (DNA-PKi),[3],48.49%
same,% of CUG foci free nuclei (Vehicle),[3],27.28%
CGGCTCCGCCCGCTTCGGCGGT (guide RNA; chemistry not fully specified) [SluD60],Indel efficiency,[1],0%
same,% of CAG foci positive nuclei (DNA-PKi),[2],1.16%
same,% of CAG foci positive nuclei (Vehicle),[2],1.02%
same,% of CUG foci free nuclei (DNA-PKi),[3],16.87%
same,% of CUG foci free nuclei (Vehicle),[3],6.71%
CGTGGATGGGCAAACTGCAGGC (guide RNA; chemistry not fully specified) [SluD12],Indel efficiency,[1],44%
same,% of CAG foci positive nuclei (DNA-PKi),[2],1.21%
same,% of CAG foci positive nuclei (Vehicle),[2],4.65%
same,% of CUG foci free nuclei (DNA-PKi),[3],23.77%
same,% of CUG foci free nuclei (Vehicle),[3],17.76%
"CTAGCggccggggagggagggg (guide RNA; as printed in the source, key not given here) [SluU47]",Indel efficiency,[1],0%
same,% of CAG foci positive nuclei (DNA-PKi),[2],2.4%
same,% of CAG foci positive nuclei (Vehicle),[2],1%
same,% of CUG foci free nuclei (DNA-PKi),[3],12.71%
same,% of CUG foci free nuclei (Vehicle),[3],5.91%
CTCAGTGCATCCAAAACGTGGA (guide RNA; chemistry not fully specified) [SluD77],Indel efficiency,[1],17%
same,% of CAG foci positive nuclei (DNA-PKi),[2],3.13%
same,% of CAG foci positive nuclei (Vehicle),[2],1.8%
same,% of CUG foci free nuclei (DNA-PKi),[3],28.94%
same,% of CUG foci free nuclei (Vehicle),[3],14.94%
CTCCACGCACCCCCACCTATCG (guide RNA; chemistry not fully specified) [SluD22],Indel efficiency,[1],21%
same,% of CAG foci positive nuclei (DNA-PKi),[2],1.54%
same,% of CAG foci positive nuclei (Vehicle),[2],0.76%
same,% of CUG foci free nuclei (DNA-PKi),[3],20.98%
same,% of CUG foci free nuclei (Vehicle),[3],7.86%
CTCCGAGAGCAGCGCAAGTGAG (guide RNA; chemistry not fully specified) [SluD52],Indel efficiency,[1],6%
same,% of CAG foci positive nuclei (DNA-PKi),[2],1.57%
same,% of CAG foci positive nuclei (Vehicle),[2],1.26%
same,% of CUG foci free nuclei (DNA-PKi),[3],26.8%
same,% of CUG foci free nuclei (Vehicle),[3],7.59%
CTGCAGTTTGCCCATCCACGTC (guide RNA; chemistry not fully specified) [SluD10],Indel efficiency,[1],18%
same,% of CAG foci positive nuclei (DNA-PKi),[2],1.26%
same,% of CAG foci positive nuclei (Vehicle),[2],2.84%
same,% of CUG foci free nuclei (DNA-PKi),[3],27.41%
same,% of CUG foci free nuclei (Vehicle),[3],13.43%
"CTTCGAgccccgttcgccggcc (guide RNA; as printed in the source, key not given here) [SluU61]",Indel efficiency,[1],14%
same,% of CAG foci positive nuclei (DNA-PKi),[2],1.46%
same,% of CAG foci positive nuclei (Vehicle),[2],0.9%
same,% of CUG foci free nuclei (DNA-PKi),[3],49.57%
same,% of CUG foci free nuclei (Vehicle),[3],17.78%
